Columns and labels:
[1] = test system: rat liver mitochondrial; settings: in vitro; cited from earlier work
[2] = test system: Fb859 propionic acidemia patient fibroblasts; assay: Lysine succinylation of cellular proteins by immunofluorescence confocal microscopy; type: cell-based, human; settings: media without glucose; for lysine succinylation (green staining) compared to untreated cells: FIG. 7, 90 μM, 72 hours, glutamine or pyruvate, lipid stripped FBS; for lysine succinylation (green) signal: FIGS. 8A-8F, 30 μM and 90 μM, pyruvate, glutamine, stripped FBS
Experimental: FIG. 7 are immunocytochemistry photomicrographs showing the effect of incubation of Fb859 propionic acidemia patient fibroblasts on for lysine succinylation with 90 μM of PMA010, 90 μM of PMA011, 90 μM of succinic acid, 90 μM of methylmalonic acid, or 90 μM adipic acid for 72 hours. Immunocytochemistry of the fibroblast cells were stained for anti-succinyllysine antibody, anti-MTCO1 antibody and DAPI for nuclei. Instrument: Zeiss LSM 710 confocal Microscopy. Magnification: 40×. The cells were grown in glass coverslips at a seeding density of 3-5×10^4 cells. The media for untreated and treatment groups had no glucose, glutamine or pyruvate, and lipid stripped FBS was included instead of regular FBS. Scale bar=20 μm.
FIGS. 8A-8F are a comparison of lysine succinylation of cellular proteins visualized by immunofluorescence confocal microscopy in a Propionic Acidemia (Fb859) patient untreated (FIG. 8A) and treated with 30 μM and 90 μM of D-Serine (FIG. 8B), 30 µM and 90 μM of PMA007 (FIG. 8C), or 30 μM and 90 μM of PMA010 (FIG. 8D). Scale bar=20 μm. FIG. 8E is a bar graph showing the quantification of the percent change in lysine succinylation (green) signal, from the immunofluorescence confocal micrographs of FIGS. 8B and 8C, in response to the treatment of D-serine and PMA007. FIG. 8F is a bar graph showing the quantification of the percent change in lysine succinylation (green) signal, from the immunofluorescence confocal micrographs of a D-Serine repeat experiment and FIG. 8D, in response to the treatment of D-serine and PMA010. Asterisks indicate statistical significance calculated at the raw data level (n=3); **P<0.01, ***P<0.001, ****P<0.0001 statistically compared to untreated. Statistical analysis used T-test.
Immunohistochemistry: Patient cells were grown in glass coverslips at a seeding density of 3-5×10^4 cells. The media for untreated and treatment groups had no glucose, glutamine or pyruvate, and lipid stripped FBS was included instead of regular FBS. NIH Image J software was used to quantify the fluorescence intensity from 50-60 cells per group. Immunocytochemistry of propionic acidemia patient (Fb859) fibroblast cells lines stained for anti-succinyllysine (Green), anti-MTCO1 (Red), or anti-TOMM20 antibodies, and DAPI (Blue) for nuclei. Instrument: Zeiss LSM 710 confocal Microscopy. Statistical analysis used Tukey multiple range test. ****P<0.0001, [PMA010] (90 μM) treatment group statistically compared to control cells grown in the presence of regular complete DMEM media, untreated and [PMA010] (30 μM) cells grown in the absence of glucose/pyruvate/L-glutamine.

[3] = test system: glutaric acidemia II (GA II) fibroblast cell line Fb930; assay: Mitochondrial ROS production using MitoSOX Red; type: cell-based, human; settings: FIG. 15D; 600 and 1200 μM, 72 h; preliminary test
Description: (§1) FIGS. 15A-15D are graphs showing the measurement of mitochondrial reactive oxygen species (ROS) production using MitoSOX Red as Superoxide indicator probe. FIG. 15A is a graph showing control fibroblast cell line FB826 treated with PMA010, PMA011, PMA019, and PMA020. FIG. 15B is a graph showing propionic acidemia (PA) patients' fibroblast cell linc Fb859 treated with PMA010, PMA011, PMA019, and PMA020. FIG. 15C is a graph showing propionic acidemia (PA) patients' fibroblast cells line Fb900 treated with PMA010, PMA011, PMA019, and PMA020. FIG. 15D is a graph comparing ROS production levels in response to treatment with PMA011 in Control fibroblast cell line (FB826), PA fibroblast cell line (Fb900), and glutaric acidemia II (GA II) patient fibroblast cell lines (Fb930, Fb961). Data are the average of readings from 3 replicate wells.
(§2) Measurement of mitochondrial ROS production using MitoSOX Red as superoxide indicator probe: control (Fb826), PA patient (Fb859, Fb900) and GA II patient (Fb930, Fb961) fibroblasts were grown in regular DMEM media containing glucose/pyruvate/L-glutamine until 85-90% confluency. The cells were harvested and seeded at a concentration of 25,000 cells/80 μl (n=3) in cell culture treated black wall 96 well microplate with clear bottom in regular DMEM media containing glucose/pyruvate/L-glutamine and incubated overnight at 37° C. in a 5% CO2 incubator. Following day, the culture media was replaced in designated wells with the following for 72 h: 150 μl regular DMEM (Glucose+10% FBS+sodium pyruvate+L-glutamine+0.5 mM carnitine). 150 μl of Regular DMEM containing experimental compounds (180 and 640 μM) PMA010 or PMA011 or PMA 019 and (640 μM) PMA020 in control and propionic acidemia patient fibroblasts. 150 μl of regular DMEM containing experimental compounds (600 and 1200 μM) PMA011 in Fb930 and (1200 μM) PMA011 in Fb961 GA II patient fibroblast. After 72 h incubation the wells were washed twice with 150 μL of Seahorse XFDMEM base media and in respective designated wells the following Assay buffer (150 μL of seahorse XFDMEM base media containing glucose, sodium pyruvate and Glutamine) was used along with 5 μM MitoSOX reagent and incubated at 37° C. non-CO2 incubator for 15 minutes protected from light. After 15 minutes incubation the cells were washed twice with 150 μL of seahorse XFDMEM base media and replaced with measurement buffer, which is same as the wash buffer. The fluorescence was monitored with excitation at 520 nm and emission at 580 nm. Finally, cells were lysed, and protein content was determined. Data is normalized to protein concentration and fluorescence is reported as MitoSOX Red (AFU)/mg protein.

[4] = test system: glutaric acidemia II (GA II) fibroblast cell line Fb961; assay: Mitochondrial ROS production using MitoSOX Red; type: cell-based, human; settings: FIG. 15D; 1200 μM, 72 h; preliminary test
Description: as §1, §2

[5] = test system: propionic acidemia (PA) fibroblast cell line Fb900; assay: Mitochondrial ROS production using MitoSOX Red; type: cell-based, human; settings: FIG. 15C; 180 and 640 μM, 72 h
Description: as §1, §2

[6] = test system: HEK293 PCCA−/− cells; assay: Lysine succinylation of cellular proteins by immunofluorescence confocal microscopy; type: cell-based, human; settings: FIGS. 9C, 9D; 30 μM and 90 μM; media without glucose, pyruvate, and glutamine
Experimental: FIGS. 9A-9F are a comparison of lysine succinylation of cellular proteins visualized by immunofluorescence confocal microscopy in human HEK293 control and HEK293 PCCA^−/− cells untreated (FIGS. 9A and 9B) and treated with 30 μM and 90 μM of PMA007 (FIG. 9C) or 30 μM and 90 μM of PMA010 (FIG. 9D). The cells in FIGS. 9B, 9C, and 9D were grown in media without glucose, pyruvate, and glutamine. Scale bar=20 μm. FIG. 9E is a bar graph showing the quantification of the percent change in lysine succinylation (green) signal, from the immunofluorescence confocal micrographs of FIGS. 9B and 9C, in response to the treatment of PMA007. FIG. 9F is a bar graph showing the quantification of the percent change in lysine succinylation (green) signal, from the immunofluorescence confocal micrographs of FIGS. 9B and 9D, in response to the treatment of PMA010. Asterisks indicate statistical significance calculated at the raw data level (n=3); **P<0.01. ****P<0.0001 statistically compared to untreated. Statistical analysis used T-test.
FIGS. 9A-9F are a comparison of lysine succinylation of cellular proteins visualized by immunofluorescence confocal microscopy in human HEK293 control and in untreated and treated HEK293 PCCA^−/− knock out cells. […] The PMA007 treatment data in the bar graph of FIG. 9E are the quantitation of the images of FIG. 9C compared to untreated control in FIG. 9B. […]

[7] = test system: PA patient cells, Fb859; assay: Measurement of mitochondrial respiration (Seahorse XF MitoStress test, OCR); type: cell-based, human; settings: FIGS. 12A-12D; 30 μM and 90 μM for 72 h
Experimental: Measurement of Mitochondrial Respiration Seahorse: Fb859 cells were grown in regular DMEM media until 85-90% confluency. The cells were harvested and seeded at a concentration of 25,000 cells/80 μl (n=8 replicates) in poly-D lysine coated XFe seahorse 96well plate in regular DMEM media and incubated overnight at 37° C. in a 5% CO2 incubator. Following day, the culture media was replaced in designated wells with the following for 72 h:180 μl of Specialty Media A (seahorse XFDMEM base media+10% fat stripped FBS+Glucose+sodium pyruvate+L-glutamine+0.5 mM carnitine). 180 μl of Specialty Media B (scahorse XFDMEM base media+10% stripped FBS+0.5 mM carnitine and no added glucose, sodium pyruvate or glutamine). 180 μl of Specialty media B containing experimental compounds. After 72 h incubation the Specialty media A & B was replaced in respective designated wells with 180 μL Seahorse XF DMEM base media containing glucose, sodium pyruvate. […] OCR was determined (Seahorse XF MitoStress test). Finally, cells were lysed, and protein content was determined. […]
Measurement of Mitochondrial Respiration: Control Fb826 and Patient Fb859 cells were grown in regular DMEM media without adding extra glutamine until 85-90% confluency. […] Oxygen consumption rate (OCR) was determined (Seahorse XF MitoStress test). Finally, cells were lysed, and protein content was determined. […]

[8] = test system: PA patients; settings: clinical study initiated in 2008; cited from earlier work

**Q.** For `O=C(O)C[C@H](O)C(=O)O` [L-malate], which “reduction of propionate level” value [1] is on record?
**A.** The value was 46%.

**Q.** And the “reduction of propionyl-CoA levels in the mitochondrial matrix” value [1]?
**A.** Its value is 62%.

**Q.** For `O=C(O)CCCCC(=O)O` [adipic acid, reference compound], which “lysine succinylation (green staining) compared to untreated cells” value [2] is on record?
**A.** Its value is “obvious increase in the green staining”.

**Q.** Which “lysine succinylation (green staining) compared to untreated cells” value [2] does the source give for `O=C(O)CCC(=O)O` [succinic acid, reference compound] here?
**A.** The value was “obvious increase in the green staining”.

**Q.** For `CC(C(=O)O)C(=O)O` [methylmalonic acid], which “lysine succinylation (green staining) compared to untreated cells” value [2] is on record?
**A.** Its value is “obvious increase in the green staining”.

**Q.** What does the source list for `CC(C(=O)O)C(=O)N[C@H](C)C(=O)N[C@H](Cc1c[nH]cn1)C(=O)O` (stereo partly drawn) [PMA011, 3-(((R)-1-(((R)-1-carboxy-2-(1H-imidazol-4-yl)ethyl)amino)-1-oxopropan-2-yl)amino)-2-methyl-3-oxopropanoic acid]?
**A.** lysine succinylation (green staining) compared to untreated cells [2]: obvious increase in the green staining; ROS detected (MitoSOX Red) compared to no treatment [3]: significant decrease in ROS; ROS detected (MitoSOX Red) compared to no treatment [4]: significant decrease in ROS; ROS detected (MitoSOX Red) [5]: similarly effective

**Q.** With `N[C@H](CO)C(=O)O` [D-serine, reference compound] as the molecule, how does the “lysine succinylation (green) signal” value [2] read?
**A.** The value was “Restoration of lysine succinylation (green) signal”.

**Q.** What does the source list for `N[C@H](COC(=O)CCCCC(=O)O)C(=O)N[C@@H](Cc1c[nH]cn1)C(=O)O` [PMA007, 6-((R)-2-amino-3-(((S)-1-carboxy-2-(1H-imidazol-4-yl)ethyl)amino)-3-oxopropoxy)-6-oxohexanoic acid]?
**A.** lysine succinylation (green) signal [2]: Restoration of lysine succinylation (green) signal; lysine succinylation (green) signal [6]: green color was restored; oxygen consumption parameters compared to individual components D-Serine and D-Histidine [7]: improved

**Q.** For `O=C(O)CC(O)(CC(=O)O)C(=O)O` [citrate], which “clinical benefit of supplementation” value [8] is on record?
**A.** The value was “can be beneficial in some cases”.
